Test: Competitive ripening experiments on levocabastine free base forms
Format: physicochemical
Excerpt: It has been observed that the levocabastine HCl salt converts during the preparation of formulations of the invention (e.g. as described in Examples 1 and 2) to levocabastine free base. Levocabastine free base Forms 1 and 2 were observed during the form screen of the HCl salt and during pH solubility studies.

C[C@@H]1CN(C2CCC(C#N)(c3ccc(F)cc3)CC2)CC[C@]1(C(=O)O)c1ccccc1 (stereo partly drawn) [levocabastine Form 1, (3S,4R)-1-[4-cyano-4-(4-fluorophenyl)cyclohexyl]-3-methyl-4-phenylpiperidine-4-carboxylic acid]
relative stability of polymorphic forms of the free base: most stable form

Reference: patent publication US9675624B2, “Combination of levocabastine and fluticasone furoate for the treatment of inflammatory and/or allergic conditions” (Glaxo Group Limited, priority 2012, dated 2017)
